Laboratory results taken from US8575375B2, “Androstane and pregnane steroids with potent allosteric GABA receptor chloride ionophore modulating properties” (Research Triangle Institute, priority 2007, dated 2013).

Assays:
GABAA receptor [1] = assay: [3H]Flunitrazepam binding assay (enhancement) in rat brain cerebral cortex homogenates; conditions: for [3H]Flunitrazepam Emax: percentage of Emax determined for allopregnanolone; for EC50: rat cortical membranes, 1.0 μM GABA, 1.0 nM [3H]flunitrazepam, mean±SD
Procedure: (§1) Tissue preparation. Rat brain cerebral cortex homogenates and the binding assays were conducted essentially as described (Carter et al., 1997). Briefly, adult male Sprague-Dawley rats (Charles River Laboratories, Raleigh, N.C.) were killed by excess CO2 asphyxiation, decapitated, and their brain rapidly removed and frozen on dry ice before being stored −76° C. The frozen cortices were placed in 10 volumes of an ice-cold 0.32 M sucrose solution and homogenized with a Teflon-glass homogenizer. The homogenate was centrifuged at 1500×g (10 min at 4° C.). The supernatant was retained and centrifuged at 10,000×g (20 min at 4° C.), yielding the P2 pellet. The P2 pellet was resuspended in an equal volume of a 50 mM Na+/K+ phosphate buffer containing 200 mM NaCl (pH 7.4) and centrifuged at 10,000×g (10 min at 4° C.). The pellet was washed twice more, resuspended in 1/10 volume of buffer and stored at −76° C. until the time of assay.
[^3H]Flunitrazepam binding assay. This assay was conducted as described for the [^35S]TBPS assay except that the assays contained 20 μg tissue homogenate, 1.0 μM GABA and 1.0 nM [^3H]flunitrazepam (74.1-85 Ci/mmol). Clonazepam (1.0 μM) was used to determine nonspecific binding.

GABAA receptor [2] = assay: [35S]TBPS binding assay in rat brain cerebral cortex homogenates; conditions: rat cortical membranes, 6.25 μM GABA, 2 nM [35S]TBPS; mean±SD
Procedure: as §1
[^35S]TBPS binding assays. These assays were carried out in 1.4 mL polypropylene tubes (Matrix Technologies, Hudson, N.H.). In a final volume of 0.5 mL, each tube contained 100 μL cortical membrane suspension (40 μg of protein, added last) 2 nM [^35S]TBPS (64-165 Ci/mmol), 6.25 μM GABA and one of six different concentrations of test compound added as 5 μL in 100% DMSO (1% final DMSO concentration). The test compounds were added to the assay tubes using a BiomekFX automated liquid handler with 96-well head (Beckman-Coulter, Fullerton, Calif.). Nonspecific binding was determined in the presence of 200 μM picrotoxin. The assays were incubated for 2 h at RT before being terminated by vacuum filtration through 96-well GF/B glass filter plates using a 96-well harvester (Brandel Scientific, Gaithersburg, Md.). Prior to harvesting, the filter plates were pre-soaked for 20 min in buffer containing 0.15% BSA and 0.1% PEI. The radioactivity remaining on the filter was determined in a TopCount 12-detector scintillation counter (Packard Instruments, Meriden, Conn.) using 20 μl of MicroScint20 (Packard Instruments) per well and standard liquid scintillation counting techniques.

[3] = tested on: pentylenetetrazole (PTZ) induced seizures; assay: PTZ seizure test; assay type: in vivo; conditions: FIG. 3; mice
Procedure: (§2) Male NIH Swiss mice (25-30 g) were housed two per cage. Animals were kept in a vivarium (temperature 22-26° C.; humidity 40-50%) with an artificial 12-h light/dark cycle and free access to food and water. Animals were allowed to acclimate to the vivarium for at least 5 days. The experiments were performed during the light phase of the light/dark cycle (between 9:30 AM and 3:30 PM), after at least a 30-min period of acclimation to the experimental room. Animals were maintained in facilities fully accredited by the Association for Assessment and Accreditation of Laboratory Animal Care, and experiments were performed under protocols approved by the Animal Care and Use Committee of the National Institute of Neurological Disorders and Stroke in strict compliance with the Guide for the Care and Use of Laboratory Animals of the National Research Council (National Academy Press, Washington, D.C.
(§3) Solutions of the steroids were made fresh daily in 40% hydroxypropyl-β-cyclodextrin in sterile 0.9% saline. Further dilutions were made using sterile saline. The steroids were injected intraperitoneally. The convulsant agent pentylenetetrazol (PTZ; Sigma-Aldrich) was dissolved in saline immediately before use. […]
The PTZ seizure test was carried out as described (Kokate et al., 1994). […] Mice failing to show clonic seizures lasting longer than 5 s were scored as protected. […]

[4] = tested on: electrically (6 Hz) induced seizures; assay: 6-Hz seizure test; assay type: in vivo; conditions: FIG. 3; mice
Procedure: as §2
as §3, with “use. All drug solutions were administered in a volume equaling 0.01 mL/g of the animal's body weight.” for “use.”

[5] = tested on: elevated zero maze behaviour; assay: Elevated zero maze test of anxiolytic activity; assay type: in vivo; conditions: therapeutic doses, mice
Procedure: as §2, with “D.C. […]” for “D.C.”
Anxiolytic activity was assessed with the elevated zero-maze as described (Kaminski et al., 2006). […] Five-min test sessions were video-recorded with a tripod-mounted camcorder. Percent time in open areas and number of entries into open areas were scored from the taped records using Observer 3.0 software (Noldus, Wageningen, The Netherlands). […] Dose-response data were analyzed by one-way analysis of variance. […]

SMILES | [3H]Flunitrazepam Emax (GABAA receptor [1]) | EC50 (GABAA receptor [1]) | IC50 (GABAA receptor [2]) | melting point | reduction of chemically (PTZ) induced seizures [3] | reduction of electrically (6 Hz) induced seizures [4] | percentage of time spent in open arms of the maze ([5]; FIG. 1A) | number of entries (open arms) ([5]; FIG. 1B)
CS[C@H]1CCC2C3CC[C@H]4C[C@H](O)CC[C@]4(C)C3CC[C@@]21C (stereo partly drawn) [Compound B-5, 3α-Hydroxy-17β-thiomethyl-5α-androstane] | 131.7% | 75.9 ± 12.4 nM | 32 ± 5.19 nM | 151 to 153 °C |  |  |  | 
C[C@@]1(O)CC[C@@]2(C)[C@@H](CC[C@@H]3[C@@H]2CC[C@]2(C)[C@@H]([N+](=O)[O-])CC[C@@H]32)C1 [Compound A2-B, 3α-Hydroxy-3β-methyl-17β-nitro-5α-androstane] | 99.1% | 33.5 ± 4.9 nM | 17.9 ± 6.19 nM | 211 to 213 °C |  |  |  | 
CN(C)c1ccc([C@H]2C[C@]3(C)[C@@H](O)CC[C@H]3[C@@H]3CC[C@H]4C[C@](C)(O)CC[C@@H]4[C@H]32)cc1.Cl |  |  |  | 230 to 232 °C (dec.) |  |  |  | 
C[C@]12CC[C@@H](O)C[C@@H]1CC[C@@H]1[C@@H]2CC[C@]2(C)[C@@H]([N+](=O)[O-])CC[C@@H]12 [Compound A2-A, 17β-Nitro-5α-androstan-3α-ol] | 103% | 24 ± 2.5 nM | 13 ± 0.13 nM |  | reduce | reduce | significantly enhanced | significantly enhanced
CN(C)c1ccc([C@H]2C[C@@]3(C)C(CC[C@@H]3[N+](=O)[O-])C3CC[C@H]4C[C@](C)(O)CCC4C32)cc1 (stereo partly drawn) [Compound C-8, 11β-[4-(N,N-Dimethylamino)phenyl]-3α-hydroxy-3β-methyl-5α-17β-nitro-estrane] | 135% | 39.5 ± 20.6 nM | 9.79 ± 1.93 nM |  |  |  |  | 
